{
  "source": "paper PMC5217330",
  "about": "“Impact of colistin plasma levels on the clinical outcome of patients with infections caused by extremely drug-resistant Pseudomonas aeruginosa” (BMC Infectious Diseases, 2017)",
  "key": {"[1]": {"assay": "Colistin plasma concentration at steady state in patients treated with intravenous CMS (HPLC)", "assay_type": "in vivo, human", "procedure": "CMS for injection was used and dosed in millions of IU throughout the study. The drug was administered intravenously in 100 mL of normal saline over 30 min in the commercially available colistimethate formulation for injection (GES GenéricosEspañoles®), with each vial containing 80 mg CMS (equivalent to 1 million IU of CMS and about 30 mg of colistin base activity). As the policy of our hospital, CMS is reserved for the treatment of infections due to bacteria that are resistant to carbapenems and other antipseudomonal antibiotics except colistin and, eventually, aminoglycosides. Dose selection was at the discretion of the responsible clinicians. CMS doses ranged from 1 to 3 million IU every 8 h (3–9 millions IU daily). The following dose adjustments were made according to the package insert’s recommendations in patients with impaired renal function: GFR ≥ 76 mL/min/1.73 m^2, 4–6 million IU daily in three doses; GFR 40 to 75 mL/min/1.73 m^2, 2–3 million IU daily in 2 doses; GFR 25–40 mL/min/1.73 m^2, 1.5–2 million IU daily divided into 1 or 2 doses; and GFR < 25 mL/min/1.73 m^2, 0.6–1 million IU daily every 36 h. No loading-dose was administered to any included patient.\nMeasurement of the plasma colistin concentration was performed at the fourth day of treatment, when was assumed that the colistin concentrations had reached the steady state. The colistin plasma trough concentrations (Cmin) were measured just before the administration of CMS. The maximum plasma concentrations (Cmax) were obtained 30 min after the end of the CMS infusion (1 h after the start of infusion). A specialized nurse performed extraction of blood. Samples were immediately placed in a portable refrigerator (4 °C) to be processed in a refrigerated centrifuge (4 °C) at the laboratory. Colistin concentrations in the plasma were determined using a validated high-performance liquid chromatography (HPLC) method as reportedby Li et al., with minor modifications as described previously by our group.\nFollowing Couet et al., Cmin was chosen because it is more convenient from a practical view point and because due to the colistin pharmacokinetic behavior, there can be CMS hydrolysis to colistinafter sample extraction resulting in an overestimation of the real in vivo colistin plasma concentration. This phenomenon can be minimized when CMS plasma concentrations are lower what occurs at the end of the dosing interval (when the Cmin is measured). Throughout the present paper, we have used the term “average colistin concentration at steady state (Css)” to refer to the Cmin."}, "[2]": {"details": "in vivo", "description": "The serum creatinine level and estimated glomerular filtration rate (GFR) were recorded at baseline, at the moment of colistin plasma extraction (day 4), on day 7 and at the EOT. […] The RIFLE criteria (Table 1) estimated with exclusion of the urinary output criterion, were used for the detection and stratification of acute kidney injury (AKI) [22]. AKI during CMS treatment was defined as a 1.5-fold or more increase in serum creatinine and/or a decrease in the GFR of 25% or more. These criteria needed to be fulfilled for at least 2 consecutive measurements 24 h apart during CMS treatment."}, "[3]": {"test_system": "colistin-susceptible XDR P. aeruginosa", "assay": "Clinical outcome (clinical cure, 30-day mortality) of patients with XDR P. aeruginosa infections treated with intravenous CMS", "assay_type": "in vivo, human", "procedure": "A prospective observational cohort study was conducted between January 2009 and January 2013 at a 450-bed teaching hospital in Barcelona, Spain. All patients who had microbiologically documented infections due to colistin-susceptible XDR-P.aeruginosa and were administered CMS for at least 72 h, were included in the study. Only microbiologically documented and clinically defined infections caused by colistin-susceptible XDR P. aeruginosa treated with colistin were considered. Acute bronchitis and tracheitis were excluded from the analysis due to the difficulty in differentiating true infection from colonization in patients with chronic obstructive pulmonary disease (COPD).\nThe primary end point was clinical cure, and the secondary 30-day all-cause mortality.\nClinical cure and failure were defined as resolution and persistence/worsening, respectively, of symptoms and signs of infection.\nThirty-day mortality was defined as death occurring within 30 days of beginning CMS treatment.\nClinical cure was defined as having resolved clinical signs and symptoms and/or no need for additional antibiotic therapy. Clinical failure was defined as an inadequate response to antibiotic therapy, with worsening, new/recurrent signs and symptoms or death."}},
  "note": "Like-named read-outs stand apart in the source and are kept apart here. Where a SMILES comes first, the peptide text is derived from it.",
  "data": [
    {"compound": "CC[C@H](C)CCCCC(=O)N[C@@H](CCN)C(=O)N[C@H](C(=O)N[C@@H](CCN)C(=O)N[C@H]1CCNC(=O)[C@H]([C@@H](C)O)NC(=O)[C@H](CCN)NC(=O)[C@H](CCN)NC(=O)[C@H](CC(C)C)NC(=O)[C@@H](CC(C)C)NC(=O)[C@H](CCN)NC1=O)[C@@H](C)O", "note": "[colistin] (HELM PEPTIDE1{[CC[C@H](C)CCCCC(=O)[*:2]].[Dab].T.[Dab].[Dab].[Dab].[dL].L.[Dab].[Dab].T}$PEPTIDE1,PEPTIDE1,5:R3-11:R2$$$V2.0)", "values": [
      {"measurement": "Css/MIC", "setting": "[1]; all included patients n = 91, mean ± SD, SD", "result": "3.43 ± 2.91"},
      {"measurement": "Cmax", "setting": "[1]; human, iv, day 4, 30 min after end of 30-min CMS infusion, plasma, HPLC, mean ± SD, SD, read-out: Cmax (maximum plasma concentration)", "result": "1660 ± 1400", "unit": "ng/mL"},
      {"measurement": "level at 96 h", "setting": "[1]; human, plasma, iv, day 4, just before administration of CMS, plasma, HPLC, mean ± SD, SD, read-out: Cmin (colistin plasma trough concentration)", "result": "1710 ± 1420", "unit": "ng/mL"},
      {"measurement": "level at 96 h", "setting": "[1]; human, plasma, iv, patients who achieved clinical cure, mean (SD), abstract, SD, read-out: Css", "result": 1490, "unit": "ng/mL"},
      {"measurement": "level at 96 h", "setting": "[1]; human, plasma, iv, patients who did not achieve clinical cure, mean (SD), p = 0.01, abstract, SD, read-out: Css", "result": 2420, "unit": "ng/mL"},
      {"measurement": "level at 96 h", "setting": "[1]; human, plasma, iv, patients who died n = 28, day 4 trough, plasma, HPLC, mean ± SD, P = 0.011 vs survived, read-out: Css", "result": 2100, "unit": "ng/mL"},
      {"measurement": "level at 96 h", "setting": "[1]; human, plasma, iv, patients who survived n = 63, day 4 trough, plasma, HPLC, mean ± SD, read-out: Css", "result": 1400, "unit": "ng/mL"},
      {"measurement": "Css/MIC", "setting": "[1]; patients who died n = 28, mean ± SD, P = 0.048 vs survived, SD", "result": "4.2 ± 2.7"},
      {"measurement": "Css > 1.25 (mg/L), patients", "setting": "[1]; patients who survived n = 63", "result": "28 (44.4) n (%)"},
      {"measurement": "Css/MIC", "setting": "[1]; patients who survived n = 63, mean ± SD, SD", "result": "3.1 ± 3"},
      {"measurement": "Css/MIC", "setting": "[1]; patients with clinical cure n = 72, mean ± SD, SD", "result": "3.13 ± 2.9"},
      {"measurement": "Css/MIC", "setting": "[1]; patients with clinical failure n = 19, mean ± SD, P = 0.03 vs cure, SD", "result": "4.61 ± 2.86"}
    ]},
    {"compound": "colistimethate sodium [CMS]", "values": [
      {"measurement": "AKI RIFLE F at the EOT, patients", "setting": "[2]", "result": 11, "unit": "%"},
      {"measurement": "AKI RIFLE F on day 7 of treatment, patients", "setting": "[2]", "result": 2.2, "unit": "%"},
      {"measurement": "AKI RIFLE I at the EOT, patients", "setting": "[2]", "result": 29.7, "unit": "%"},
      {"measurement": "AKI RIFLE I on day 7 of treatment, patients", "setting": "[2]", "result": 9.9, "unit": "%"},
      {"measurement": "AKI RIFLE R at the EOT, patients", "setting": "[2]", "result": 13.2, "unit": "%"},
      {"measurement": "AKI RIFLE R on day 7 of treatment, patients", "setting": "[2]", "result": 20.9, "unit": "%"},
      {"measurement": "CMS dose modified because of AKI, patients", "setting": "[2]", "result": 17.5, "unit": "%"},
      {"measurement": "GFR returned to baseline at the end of follow-up, patients", "setting": "[2]", "result": 35.1, "unit": "%"},
      {"measurement": "Impairment of renal function during CMS treatment at the EOT, patients", "setting": "[2]", "result": 53.8, "unit": "%"},
      {"measurement": "Impairment of renal function during CMS treatment on day 7, patients", "setting": "[2]", "result": 33, "unit": "%"},
      {"measurement": "Patients with AKI at day 7, F (Failure)", "setting": "[2]", "result": "2 (2.2) n (%)"},
      {"measurement": "Patients with AKI at day 7, I (Injury)", "setting": "[2]", "result": "9 (9.9) n (%)"},
      {"measurement": "Patients with AKI at day 7, R (Risk)", "setting": "[2]", "result": "19 (20.9) n (%)"},
      {"measurement": "Patients with AKI at the EOT, F (Failure)", "setting": "[2]", "result": "10 (11) n (%)"},
      {"measurement": "Patients with AKI at the EOT, I (Injury)", "setting": "[2]", "result": "27 (27.7) n (%)"},
      {"measurement": "Patients with AKI at the EOT, R (Risk)", "setting": "[2]", "result": "12 (13.2) n (%)"},
      {"measurement": "persisted with some grade of impairment of renal function at the end of follow-up, patients", "setting": "[2]", "result": 2.1, "unit": "%"},
      {"measurement": "infection-related mortality rate", "setting": "[3]; 13 patients died due to P. aeruginosa infection, n = 91", "result": 14.3, "unit": "%"},
      {"measurement": "30-day all-cause mortality rate", "setting": "[3]; 28 of 91 patients, i.v. CMS", "result": 30.9, "unit": "%"}
    ]}
  ]
}
